From US8501946B2 (Glaxo Group Limited, priority 2009, dated 2013)

These compounds were tested against T1, human recombinant P2X7 receptors (Homo sapiens, UniProt Q99572) (assay: Ethidium Accumulation Assay 1 (HEK293 cells, ATP-induced ethidium uptake)). Details: HEK293 cells expressing human P2X7; 1 mM ATP; sometimes mean of more than one measurement; read-out: Assay 1 (antagonist pIC50 for blocking ATP responses) (converted).
T1 construct: expressed in transfected cells
T1 sequence (Q99572 1-595): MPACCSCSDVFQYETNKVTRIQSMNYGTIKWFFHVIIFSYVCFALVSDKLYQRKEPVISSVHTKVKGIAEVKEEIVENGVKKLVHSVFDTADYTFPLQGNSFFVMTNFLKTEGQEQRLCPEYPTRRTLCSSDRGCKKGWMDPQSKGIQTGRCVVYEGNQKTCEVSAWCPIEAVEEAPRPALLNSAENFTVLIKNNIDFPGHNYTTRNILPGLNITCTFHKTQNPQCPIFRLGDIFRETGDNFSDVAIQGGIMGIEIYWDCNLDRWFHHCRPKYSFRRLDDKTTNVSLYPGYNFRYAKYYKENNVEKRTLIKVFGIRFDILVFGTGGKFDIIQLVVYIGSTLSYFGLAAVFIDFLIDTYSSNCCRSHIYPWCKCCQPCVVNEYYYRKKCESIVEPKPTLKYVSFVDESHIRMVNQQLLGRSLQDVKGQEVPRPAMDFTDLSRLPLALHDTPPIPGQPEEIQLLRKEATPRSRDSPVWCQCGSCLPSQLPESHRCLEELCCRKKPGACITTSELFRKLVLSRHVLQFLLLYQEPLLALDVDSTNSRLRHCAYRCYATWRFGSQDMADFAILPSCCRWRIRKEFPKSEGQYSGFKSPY
Type: cell-based

IC50 [nM] | SMILES
< 100 | O=C(c1cccc(C(F)(F)F)c1Cl)N1CCn2c(nnc2-c2ccc(F)cc2F)C1 [Example 24, 7-{[2-Chloro-3-(trifluoromethyl)phenyl]carbonyl}-3-(2,4-difluorophenyl)-5,6,7,8-tetrahydro[1,2,4]triazolo[4,3-a]pyrazine]
< 100 | Cn1nccc1-c1nnc2n1CCN(C(=O)c1cccc(C(F)(F)F)c1Cl)C2 [Example 68, 7-{[2-chloro-3-(trifluoromethyl)phenyl]carbonyl}-3-(1-methyl-1H-pyrazol-5-yl)-5,6,7,8-tetrahydro[1,2,4]triazolo [4,3-a]pyrazine]
< 100 | O=C(c1ccc(F)c(C(F)(F)F)c1)N1CCn2c(nnc2-c2cnccn2)C1 [Example 108, 7-{[4-fluoro-3-(trifluoromethyl)phenyl]carbonyl}-3-(2-pyrazinyl)-5,6,7,8-tetrahydro[1,2,4]triazolo [4,3-a]pyrazine]
< 501 | Cn1ccnc1-c1nnc2n1CCN(C(=O)c1ccc(F)cc1Cl)C2 [Example 140, 7-[(2-chloro-4-fluorophenyl)carbonyl]-3-(1-methyl-1H-imidazol-2-yl)-5,6,7,8-tetrahydro[1,2,4]triazolo[4,3-a]pyrazine]
< 100 | CN(C)c1nnc2n1CCN(C(=O)c1cccc(C(F)(F)F)c1Cl)C2 [Example 20, 7-{[2-chloro-3-(trifluoromethyl)phenyl]carbonyl}-N,N-dimethyl-5,6,7,8-tetrahydro[1,2,4]triazolo [4,3-a]pyrazine-3-amine]
< 100 | O=C(c1ccc(F)cc1Cl)N1CCn2c(nnc2-c2cccc(F)c2)C1 [Example 123, 7-[(2-chloro-4-fluorophenyl)carbonyl]-3-(3-fluorophenyl)-5,6,7,8-tetrahydro[1,2,4]triazolo[4,3-a]pyrazine]
< 10 | O=C(c1cccc(Cl)c1Cl)N1CCn2c(nnc2-c2cccnc2)C1 [Example 61, 7-[(2,3-dichlorophenyl)carbonyl]-3-(3-pyridinyl)-5,6,7,8-tetrahydro[1,2,4]triazolo [4,3-a]pyrazine]
< 10 | O=C(c1cccc(C(F)(F)F)c1Cl)N1CCn2c(nnc2-c2ccco2)C1 [Example 77, 7-{[2-chloro-3-(trifluoromethyl)phenyl]carbonyl}-3-(2-furanyl)-5,6,7,8-tetrahydro[1,2,4]triazolo[4,3-a]pyrazine]
< 100 | O=C(c1ccc(F)cc1Cl)N1CCn2c(nnc2-c2ccc(F)c(F)c2)C1 [Example 124, 7-[(2-chloro-4-fluorophenyl)carbonyl]-3-(3,4-difluorophenyl)-5,6,7,8-tetrahydro[1,2,4]triazolo[4,3-a]pyrazine]
< 501 | COc1ccccc1-c1nnc2n1CCN(C(=O)c1ccc(F)cc1Cl)C2 [Example 127, 7-[(2-chloro-4-fluorophenyl)carbonyl]-3-[2-(methyloxy)phenyl]-5,6,7,8-tetrahydro[1,2,4]triazolo[4,3-a]pyrazine]
< 10 | Cc1ccnc(-c2nnc3n2CCN(C(=O)c2cccc(C(F)(F)F)c2Cl)C3)c1 [Example 56, 7-{[2-chloro-3-(trifluoromethyl)phenyl]carbonyl}-3-(4-methyl-2-pyridinyl)-5,6,7,8-tetrahydro[1,2,4]triazolo [4,3-a]pyrazine]
< 501 | CNc1nnc2n1CCN(C(=O)c1cccc(C(F)(F)F)c1Cl)C2 [Example 21, 7-{[2-chloro-3-(trifluoromethyl)phenyl]carbonyl}-N-methyl-5,6,7,8-tetrahydro[1,2,4]triazolo [4,3-a]pyrazine-3-amine]
< 501 | O=C(c1c(Cl)cccc1Cl)N1CCn2c(nnc2-c2ccccn2)C1 [Example 89, 7-[(2,6-dichlorophenyl)carbonyl]-3-(2-pyridinyl)-5,6,7,8-tetrahydro[1,2,4]triazolo [4,3-a]pyrazine]
< 100 | Cc1c(C(=O)N2CCn3c(nnc3-c3ncns3)C2)ccc(F)c1F [Example 202, 7-[(3,4-Difluoro-2-methylphenyl)carbonyl]-3-(1,2,4-thiadiazol-5-yl)-5,6,7,8-tetrahydro[1,2,4]triazolo[4,3-a]pyrazine]
< 501 | O=C(c1ccc(F)cc1Cl)N1CCn2c(nnc2-c2cccc3cccnc23)C1 [Example 129, 8-{7-[(2-chloro-4-fluorophenyl)carbonyl]-5,6,7,8-tetrahydro[1,2,4]triazolo[4,3-a]pyrazin-3-yl}quinoline]
< 100 | O=C(c1ccc(F)cc1Cl)N1CCn2c(nnc2-c2cccnc2)C1 [Example 39, 7-[(2-chloro-4-fluorophenyl)carbonyl]-3-(3-pyridinyl)-5,6,7,8-tetrahydro[1,2,4]triazolo [4,3-a]pyrazine]
< 100 | O=C(c1ccc(F)cc1Cl)N1CCn2c(nnc2-c2cccc3cc[nH]c23)C1 [Example 132, 7-[(2-chloro-4-fluorophenyl)carbonyl]-3-(1H-indol-7-yl)-5,6,7,8-tetrahydro[1,2,4]triazolo[4,3-a]pyrazine]

IC50 [nM] | SMILES
< 501 | Cc1ccc(C(=O)N2CCn3c(nnc3-c3cnccn3)C2)c(C)c1 [Example 143, 7-[(2,4-dimethylphenyl)carbonyl]-3-(2-pyrazinyl)-5,6,7,8-tetrahydro[1,2,4]triazolo[4,3-a]pyrazine]
< 100 | Cc1cc(-c2nnc3n2CCN(C(=O)c2cccc(C(F)(F)F)c2Cl)C3)no1 [Example 36, 7-{[2-chloro-3-(trifluoromethyl)phenyl]carbonyl}-3-(5-methyl-3-isoxazolyl)-5,6,7,8-tetrahydro[1,2,4]triazolo [4,3-a]pyrazine]
< 100 | Cn1ccc(-c2nnc3n2CCN(C(=O)c2ccc(F)cc2Cl)C3)n1 [Example 72, 7-[(2-chloro-4-fluorophenyl)carbonyl]-3-(1-methyl-1H-pyrazol-3-yl)-5,6,7,8-tetrahydro[1,2,4]triazolo [4,3-a]pyrazine]
< 10 | O=C(c1ccc(Cl)cc1Cl)N1CCn2c(nnc2-c2cnccn2)C1 [Example 92, 7-[(2,4-dichlorophenyl)carbonyl]-3-(2-pyrazinyl)-5,6,7,8-tetrahydro[1,2,4]triazolo[4,3-a]pyrazine]
< 10 | O=C(c1ccc(F)cc1Cl)N1CCn2c(nnc2-c2ncccn2)C1 [Example 47, 7-[(2-chloro-4-fluorophenyl)carbonyl]-3-(2-pyrimidinyl)-5,6,7,8-tetrahydro[1,2,4]triazolo [4,3-a]pyrazine]
< 10 | Cn1ccc(-c2nnc3n2CCN(C(=O)c2cccc(Cl)c2Cl)C3)n1 [Example 63, 7-[(2,3-dichlorophenyl)carbonyl]-3-(1-methyl-1H-pyrazol-3-yl)-5,6,7,8-tetrahydro[1,2,4]triazolo [4,3-a]pyrazine]
< 100 | O=C(c1cccc(C(F)(F)F)c1)N1CCn2c(nnc2-c2ccccn2)C1 [Example 86]
< 100 | O=C(c1ccc(Cl)cc1Cl)N1CCn2c(nnc2-c2ccc(F)cc2)C1 [Example 100, 7-[(2,4-dichlorophenyl)carbonyl]-3-(4-fluorophenyl)-5,6,7,8-tetrahydro[1,2,4]triazolo [4,3-a]pyrazine]
< 100 | O=C(c1ccc(Cl)c(Cl)c1)N1CCn2c(nnc2-c2cnccn2)C1 [Example 115, 7-[(3,4-dichlorophenyl)carbonyl]-3-(2-pyrazinyl)-5,6,7,8-tetrahydro[1,2,4]triazolo[4,3-a]pyrazine]
< 100 | Cc1cccnc1-c1nnc2n1CCN(C(=O)c1cccc(Cl)c1Cl)C2 [Example 66, 7-[(2,3-dichlorophenyl)carbonyl]-3-(3-methyl-2-pyridinyl)-5,6,7,8-tetrahydro[1,2,4]triazolo [4,3-a]pyrazine]
< 100 | O=C(c1ccc(F)cc1Cl)N1CCn2c(nnc2-c2cccc(Cl)c2Cl)C1 [Example 130, 7-[(2-chloro-4-fluorophenyl)carbonyl]-3-(2,3-dichlorophenyl)-5,6,7,8-tetrahydro[1,2,4]triazolo[4,3-a]pyrazine]
< 100 | O=C(c1ccc(Cl)cc1Cl)N1CCn2c(nnc2-c2ccncn2)C1 [Example 102, 7-[(2,4-dichlorophenyl)carbonyl]-3-(4-pyrimidinyl)-5,6,7,8-tetrahydro[1,2,4]triazolo [4,3-a]pyrazine]
< 501 | Cc1ncccc1-c1nnc2n1CCN(C(=O)c1ccc(F)cc1Cl)C2 [Example 74, 7-[(2-chloro-4-fluorophenyl)carbonyl]-3-(2-methyl-3-pyridinyl)-5,6,7,8-tetrahydro[1,2,4]triazolo [4,3-a]pyrazine]
< 501 | CC(C)(C)c1nnc2n1CCN(C(=O)c1cccc(C(F)(F)F)c1Cl)C2 [Example 25, 7-{[2-chloro-3-(trifluoromethyl)phenyl]carbonyl}-3-(1,1-dimethylethyl)-5,6,7,8-tetrahydro[1,2,4]triazolo [4,3-a]pyrazine]
< 100 | Cc1ncccc1-c1nnc2n1CCN(C(=O)c1cccc(C(F)(F)F)c1Cl)C2 [Example 65, 7-{[2-chloro-3-(trifluoromethyl)phenyl]carbonyl}-3-(2-methyl-3-pyridinyl)-5,6,7,8-tetrahydro[1,2,4]triazolo [4,3-a]pyrazine]
< 10 | O=C(c1cccc(C(F)(F)F)c1Cl)N1CCn2c(nnc2-c2ccc[nH]2)C1 [Example 38, 7-{[2-chloro-3-(trifluoromethyl)phenyl]carbonyl}-3-(1H-pyrrol-2-yl)-5,6,7,8-tetrahydro[1,2,4]triazolo [4,3-a]pyrazine]
